Data published in patent publication US20100178243A1, “Novel method of stabilizing diagnostic and therapeutic compounds in a cationic carrier system” (MediGene AG, priority 2002, published 2010).

Tested on: A-375 Melanoma
Test: Therapeutic efficacy of LipoCam in A-375 melanoma of nude mice
Format: in vivo
Conditions: iv, three times a week for three weeks, equitoxic doses; s.c. A-375 tumors; FIG. 11
Procedure: NMRI-nude mice were purchased from Elevage Janvier and housed in isolated ventilated cages under save environmental conditions (SPF facility, 22° C., 30-70% humidity, 12 h light/dark cycle) with food and water ad libitum. Experimental design was reviewed and approved by local government.
Tumor cells (A-375 human melanoma cell line, ATCC Nr.: CRL-1619) were grown as described in the data sheet supplied by ATCC. Tumor cells (5×10^6 in PBS) were inoculated s.c. in the right dorsal flank of mice in a volume of 50 μl on day 0.
Mice were assigned to the experimental groups (8 animals per cage), housed and handled (including monitoring of the body weight gain) at least five days before tumor inoculation (=day −6 to 0). […] Equitoxic doses of the compounds were determined in separate experiments, where toxicity was evaluated based on haematological parameters, body weight and animal clinical observations. […]
Animals were clinically monitored during the whole experiment and for at least one week after treatment was finished. […] The tumor dimensions were measured by calliper and the tumor size was calculated according to the following formula: V=πLW^2/6 (L=greatest length, W=width of perpendicular axis). […] The number of red and white blood cells and platelets were determined using an automated cell counter (Abbott Cell Dyn 3500).

## CC[C@@](O)(C(=O)[O-])c1cc2n(c(=O)c1CO)Cc1cc3ccccc3nc1-2.[Na+] [CPT-Na-Carboxylate]
  anti-tumor effect (in words): only a retardation as compared to the control group
